Our source for the IC50 values is patent publication US20250177363A1, “SUBSTITUTED IMIDAZOPYRIDINYL COMPOUNDS USEFUL AS INHIBITORS OF TLR9” (Bristol-Myers Squibb Company, priority 2022, published 2025).

Usually pIC50 stands for the IC50 on a negative log10 scale, so that one unit is a factor of ten. Low readings indicate a large IC50, high ones a small IC50.

pIC50: −log10 of the molar value.

Common to all, as to assay type: cell-based
One assay concerns the target T1, human TLR9 (Homo sapiens, UniProt Q9NR96).
T1 construct: host or cells: HEK-Blue cells
T1 sequence (Q9NR96 26-1032): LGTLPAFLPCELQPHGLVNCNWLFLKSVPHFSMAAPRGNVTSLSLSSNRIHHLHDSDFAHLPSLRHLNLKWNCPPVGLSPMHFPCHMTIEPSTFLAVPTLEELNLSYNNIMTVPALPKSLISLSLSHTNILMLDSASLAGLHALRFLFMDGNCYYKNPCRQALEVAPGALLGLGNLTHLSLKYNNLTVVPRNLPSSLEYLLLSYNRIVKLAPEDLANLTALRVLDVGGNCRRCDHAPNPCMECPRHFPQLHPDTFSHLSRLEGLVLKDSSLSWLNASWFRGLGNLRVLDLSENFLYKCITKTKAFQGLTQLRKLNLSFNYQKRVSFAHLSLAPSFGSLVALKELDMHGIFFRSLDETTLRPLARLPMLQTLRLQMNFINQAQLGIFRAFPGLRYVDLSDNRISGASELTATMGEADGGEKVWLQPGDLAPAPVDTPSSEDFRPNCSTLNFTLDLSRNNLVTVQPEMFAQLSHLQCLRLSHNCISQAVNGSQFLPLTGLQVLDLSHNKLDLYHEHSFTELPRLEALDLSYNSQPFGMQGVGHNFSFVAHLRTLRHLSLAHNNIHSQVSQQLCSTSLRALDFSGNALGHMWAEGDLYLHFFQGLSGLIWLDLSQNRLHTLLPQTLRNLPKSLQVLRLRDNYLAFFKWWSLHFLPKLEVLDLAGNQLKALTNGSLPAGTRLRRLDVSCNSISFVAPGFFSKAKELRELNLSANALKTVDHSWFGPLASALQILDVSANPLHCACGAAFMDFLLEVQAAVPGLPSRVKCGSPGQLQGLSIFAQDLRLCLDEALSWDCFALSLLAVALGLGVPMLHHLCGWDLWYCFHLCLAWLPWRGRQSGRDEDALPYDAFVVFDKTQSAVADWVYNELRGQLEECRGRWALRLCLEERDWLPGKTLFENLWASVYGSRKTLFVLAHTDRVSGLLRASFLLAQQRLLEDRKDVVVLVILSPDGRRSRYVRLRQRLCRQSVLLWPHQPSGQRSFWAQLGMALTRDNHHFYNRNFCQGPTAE
The assay can be described thus: TLR9 inhibition reporter assay (HEK-Blue, SEAP). Conditions: HEK-Blue cells overexpressing human TLR9, ligand ODN2006 200 nM, 22 hour incubation. Put shortly: (§1)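 HEK-Blue cells expressing human TLR7, TLR8 or TLR9 with NF-κB/AP-1-driven SEAP reporter; compounds 0.85 nM–50 μM, pre-treated 60 min. Stimulation: gardiquimod 2.5 μM (TLR7), R848 14.25 μM (TLR8), ODN2006 200 nM (TLR9); SEAP read after 22 h at 37 °C. Percent inhibition normalized between agonist+DMSO and known-inhibitor wells.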

The target of a further assay is T2, human TLR7 (Homo sapiens, UniProt Q9NYK1).
T2 construct: host or cells: HEK-Blue cells
T2 sequence (Q9NYK1 27-1049): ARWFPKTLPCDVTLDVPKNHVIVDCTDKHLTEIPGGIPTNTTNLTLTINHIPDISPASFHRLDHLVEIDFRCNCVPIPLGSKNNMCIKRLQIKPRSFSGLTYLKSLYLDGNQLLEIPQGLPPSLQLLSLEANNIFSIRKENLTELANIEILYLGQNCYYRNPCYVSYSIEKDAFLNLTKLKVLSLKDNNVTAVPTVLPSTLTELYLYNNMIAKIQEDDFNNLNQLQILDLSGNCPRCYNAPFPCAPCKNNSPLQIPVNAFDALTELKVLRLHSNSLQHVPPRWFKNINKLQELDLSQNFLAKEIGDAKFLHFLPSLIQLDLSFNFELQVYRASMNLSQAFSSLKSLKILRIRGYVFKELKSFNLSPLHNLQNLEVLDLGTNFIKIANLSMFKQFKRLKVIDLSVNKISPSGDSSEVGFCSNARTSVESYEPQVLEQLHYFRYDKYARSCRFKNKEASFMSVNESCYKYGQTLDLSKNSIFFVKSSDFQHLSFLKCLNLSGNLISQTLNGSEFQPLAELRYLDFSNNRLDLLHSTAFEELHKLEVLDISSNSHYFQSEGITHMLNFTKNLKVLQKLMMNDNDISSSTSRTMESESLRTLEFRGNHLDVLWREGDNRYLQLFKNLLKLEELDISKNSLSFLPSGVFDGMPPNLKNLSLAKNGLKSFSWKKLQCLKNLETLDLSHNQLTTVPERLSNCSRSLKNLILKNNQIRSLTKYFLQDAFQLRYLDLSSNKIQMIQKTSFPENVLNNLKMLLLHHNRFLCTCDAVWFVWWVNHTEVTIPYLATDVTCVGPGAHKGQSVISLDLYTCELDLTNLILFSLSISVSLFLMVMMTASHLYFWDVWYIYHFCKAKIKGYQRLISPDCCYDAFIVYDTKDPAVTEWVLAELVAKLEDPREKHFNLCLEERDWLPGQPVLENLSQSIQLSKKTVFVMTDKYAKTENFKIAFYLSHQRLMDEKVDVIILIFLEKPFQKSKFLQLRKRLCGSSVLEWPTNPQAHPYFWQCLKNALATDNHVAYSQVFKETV
The assay can be described thus: TLR7 inhibition reporter assay (HEK-Blue, SEAP). Conditions: HEK-Blue cells overexpressing human TLR7, ligand gardiquimod 2.5 μM, 22 hour incubation. The procedure, abridged:
as §1
Background: Reporter assays use an easily measured gene product as a stand-in for the process of interest.

In the next assay the target is T3, human TLR8 (Homo sapiens, UniProt Q9NR97).
T3 construct: host or cells: HEK-Blue cells
T3 sequence (Q9NR97 27-1041): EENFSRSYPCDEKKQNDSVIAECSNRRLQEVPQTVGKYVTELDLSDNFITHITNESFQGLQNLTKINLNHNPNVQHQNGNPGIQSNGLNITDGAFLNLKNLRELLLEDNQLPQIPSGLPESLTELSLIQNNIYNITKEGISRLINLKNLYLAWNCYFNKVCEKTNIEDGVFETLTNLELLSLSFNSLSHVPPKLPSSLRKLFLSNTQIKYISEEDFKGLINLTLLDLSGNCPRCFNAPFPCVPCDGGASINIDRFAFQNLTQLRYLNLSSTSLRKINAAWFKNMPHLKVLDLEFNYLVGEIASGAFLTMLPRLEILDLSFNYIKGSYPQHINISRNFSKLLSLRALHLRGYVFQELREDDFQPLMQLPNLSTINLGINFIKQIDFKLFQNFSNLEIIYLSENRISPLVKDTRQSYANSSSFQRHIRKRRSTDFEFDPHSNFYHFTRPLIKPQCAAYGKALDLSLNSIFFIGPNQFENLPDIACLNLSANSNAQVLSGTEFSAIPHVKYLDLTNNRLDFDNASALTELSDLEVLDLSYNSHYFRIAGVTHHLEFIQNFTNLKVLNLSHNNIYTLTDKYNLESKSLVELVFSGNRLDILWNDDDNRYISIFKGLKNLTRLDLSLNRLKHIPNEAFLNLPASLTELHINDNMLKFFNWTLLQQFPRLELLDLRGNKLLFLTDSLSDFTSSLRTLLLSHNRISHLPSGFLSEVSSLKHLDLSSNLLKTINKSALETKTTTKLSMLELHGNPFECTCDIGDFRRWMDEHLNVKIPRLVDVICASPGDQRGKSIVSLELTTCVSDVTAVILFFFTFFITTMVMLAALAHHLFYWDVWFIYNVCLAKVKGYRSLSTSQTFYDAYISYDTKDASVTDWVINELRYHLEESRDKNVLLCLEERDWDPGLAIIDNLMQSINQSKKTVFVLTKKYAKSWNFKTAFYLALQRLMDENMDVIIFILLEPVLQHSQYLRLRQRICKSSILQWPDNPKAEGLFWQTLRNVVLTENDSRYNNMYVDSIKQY
In words: TLR8 inhibition reporter assay (HEK-Blue, SEAP). Conditions: HEK-Blue cells overexpressing human TLR8, ligand R848 14.25 μM, 22 hour incubation. The procedure, abridged: as §1

As to `COc1ccc(-c2nc3ncc(-c4ccc(N5CCN(C(C)C)CC5)cc4)cc3n2C)cc1OC` [Example 48, 2-(3,4-dimethoxyphenyl)-6-(4-(4-isopropylpiperazin-1-yl)phenyl)-1-methyl-1H-imidazo[4,5-b]pyridine], the figures for the negative logarithm of the IC50 (pIC50) on human TLR9, at human TLR7 and against human TLR8 were 6.55, 5.82 and 4.74, respectively.

`CC(C)N1CCN(c2ccc(-c3cnc4nc(-c5ccc(S(C)(=O)=O)cc5)n(C)c4c3)cc2)CC1` [Example 49, 6-(4-(4-isopropylpiperazin-1-yl)phenyl)-1-methyl-2-(4-(methylsulfonyl)phenyl)-1H-imidazo[4,5-b]pyridine]: the pIC50 on human TLR9 was 6.46; against human TLR7, 5.38; against human TLR8, 5.57.

Turning to `CC(C)N1CCN(c2ccc(-c3cnc4nc(-c5ccc(S(C)(=O)=O)cc5)n(C5CC5)c4c3)cc2)CC1` [Example 51, 1-cyclopropyl-6-(4-(4-isopropylpiperazin-1-yl)phenyl)-2-(4-(methylsulfonyl)phenyl)-1H-imidazo[4,5-b]pyridine], the pIC50 at human TLR9 is 6.47; on human TLR7, 5.57; on human TLR8, 5.38.

With `COc1ccc(-c2nc3ccc(-c4ccc(N5CCN(C(C)C)CC5)cc4)nc3n2C)cc1OC` [Example 52, 2-(3,4-dimethoxyphenyl)-5-(4-(4-isopropylpiperazin-1-yl)phenyl)-3-methyl-3H-imidazo[4,5-b]pyridine], the figures for the pIC50 against human TLR9, on human TLR7 and against human TLR8 were 6.19, 5.92 and less than 4.30, respectively.

As to `CC(C)N1CCN(c2ccc(-c3ccc4nc(-c5ccc(S(C)(=O)=O)cc5)n(C)c4n3)cc2)CC1` [Example 53, 5-(4-(4-isopropylpiperazin-1-yl)phenyl)-3-methyl-2-(4-(methylsulfonyl)phenyl)-3H-imidazo[4,5-b]pyridine], the negative-log IC50 (pIC50) at human TLR9 is 6.03; against human TLR7, less than 4.30; against human TLR8 it was less than 4.30.

As to `CC(C)N1CCN(c2ccc(-c3ccc4nc(-c5ccc(S(C)(=O)=O)cc5)n(C5CC5)c4n3)cc2)CC1` [Example 54, 3-cyclopropyl-5-(4-(4-isopropylpiperazin-1-yl)phenyl)-2-(4-(methylsulfonyl)phenyl)-3H-imidazo[4,5-b]pyridine], the pIC50 at human TLR9 is 6.12; on human TLR7, less than 4.30; against human TLR8, less than 4.30.

For `COc1ccc(-c2nc3ccc(-c4ccc(N5CCN(C(C)C)CC5)cc4)nc3n2C2CC2)cc1OC` [Example 55, 3-cyclopropyl-2-(3,4-dimethoxyphenyl)-5-(4-(4-isopropylpiperazin-1-yl)phenyl)-3H-imidazo[4,5-b]pyridine], the results for the negative logarithm of the IC50 (pIC50) against human TLR9, against human TLR7 and against human TLR8 were 5.85, 4.40 and less than 4.30, respectively.

Consider `CS(=O)(=O)c1ccc(-c2nc3ccc(-c4ccc(N5CCN(CCN6CCOCC6)CC5)cc4)nc3n2C2CC2)cc1` [Example 57, 4-(2-(4-(4-(3-cyclopropyl-2-(4-(methylsulfonyl)phenyl)-3H-imidazo[4,5-b]pyridin-5-yl)phenyl)piperazin-1-yl)ethyl)morpholine], for which the results for the negative logarithm of the IC50 (pIC50) at human TLR9, on human TLR7 and at human TLR8 were 5.49, less than 4.30 and less than 4.30, respectively.

`COc1ccc(-c2nc3c(C)cc(-c4ccc(N5CCC6(CC5)CN(C(C)C)C6)cc4)nc3n2C)cc1OC` [Example 58, 2-(3,4-dimethoxyphenyl)-5-(4-(2-isopropyl-2,7-diazaspiro[3.5]nonan-7-yl)phenyl)-3,7-dimethyl-3H-imidazo[4,5-b]pyridine]: the pIC50 against human TLR9 is 6.27; against human TLR7 it was 5.80; against human TLR8, 4.82.

In the case of `COc1ccc(-c2nc3c(C)cc(-c4ccc(N5CCC6(CC5)CN(CC(C)C)C6)cc4)nc3n2C)cc1OC` [Example 60, 2-(3,4-dimethoxyphenyl)-5-(4-(2-isobutyl-2,7-diazaspiro[3.5]nonan-7-yl)phenyl)-3,7-dimethyl-3H-imidazo[4,5-b]pyridine], the negative-log IC50 (pIC50) at human TLR9 is 5.96; against human TLR7, 5.60; against human TLR8, 5.44.

For `CC(C)N1CC2(CCN(c3ccc(-c4ccc5nc(-c6ccc(S(C)(=O)=O)cc6)n(C)c5n4)cc3)CC2)C1` [Example 61, 5-(4-(2-isopropyl-2,7-diazaspiro[3.5]nonan-7-yl)phenyl)-3-methyl-2-(4-(methylsulfonyl)phenyl)-3H-imidazo[4,5-b]pyridine], the negative logarithm of the IC50 (pIC50) is 6.25 on human TLR9, 4.80 on human TLR7 and 4.74 against human TLR8.

For the compound `CC(C)CN1CC2(CCN(c3ccc(-c4ccc5nc(-c6ccc(S(C)(=O)=O)cc6)n(C)c5n4)cc3)CC2)C1` [Example 62, 5-(4-(2-isobutyl-2,7-diazaspiro[3.5]nonan-7-yl)phenyl)-3-methyl-2-(4-(methylsulfonyl)phenyl)-3H-imidazo[4,5-b]pyridine], the pIC50 at human TLR9 is 6.23; on human TLR7, 4.82; at human TLR8 it was 5.21.
